Measured values: PMC12280724 (Frontiers in Pharmacology, 2025)
“And” between values parts separate entries of the source, which are not always exact repeats. Equal entries are not always repeated. Marks after values point to notes of the source that are not given here.

Test: In vivo biodistribution of [^99mTc]Tc-carvedilol in healthy Swiss albino mice
Settings: for [^99mTc]Tc-carvedilol percentages of injected dose per Gram organ: i.v. tail vein
Text: For biodistribution and receptor occupancy studies, 24 healthy adult Swiss albino mice (12 males and 12 females, aged 10–12 weeks, weighing 25–30 g) were obtained from the Egyptian National Research Center. Mice outside the 25–30 g weight range were excluded to ensure consistency in the biodistribution outcomes. Prior to the study, animals were housed in groups of four with ad libitum access to food and water and underwent a 2-week acclimatization period. After this adaptation phase, the mice were randomly assigned to the study groups using the lot-drawing method.
Given ^99mTc’s physical half-life of approximately 6 h, shorter imaging and sampling intervals are generally preferred to maximize radioactive signal fidelity and minimize decay-related variability. At 24 h post-injection, the residual ^99mTc activity could fall below quantifiable thresholds, potentially compromising the precision of biodistribution data. To prevent this, all data collection was restricted to early post-injection intervals—specifically […]—when radioactivity levels remain within optimal detection ranges for gamma counting. By omitting the 24 h time point altogether, the study design ensured that the radiotracer signal would be robust enough to yield statistically reliable biodistribution profiles without being confounded by the isotope’s exponential decay. Additionally, prior pilot studies were conducted to empirically determine the time window during which the radiochemical integrity and quantification signal-to-noise ratio remained analytically valid. These informed the exclusion of late-phase sampling and reinforced confidence in the reliability of kinetic data collected within the defined 6 h observation window. Therefore, six mice were euthanized at each selected time point via standardized cervical dislocation performed by trained personnel in accordance with institutional animal care guidelines. The procedure followed the AVMA Guidelines for the Euthanasia of Animals ([Kirkwood, 2013]), ensuring it was rapid, humane, and reproducible. To ensure procedural consistency, all cervical dislocations were performed by the same experienced researcher, following pre-established protocols that involved correct animal positioning, anatomical landmark identification, and verification of death through cessation of heartbeat and respiration. Immediately postmortem, body weight was recorded, and blood was collected via cardiac puncture.
Organ harvesting included the collection of the heart, liver, lungs, kidneys, spleen, stomach, intestines, muscle (right leg), bone, and brain. Following dissection, tissues were gently rinsed with isotonic saline to remove residual blood, promptly weighed, kept at low temperatures, and immediately subjected to gamma counting to preserve radiochemical integrity and avoid post-collection decay artifacts. No storage or freezing was used to prevent degradation or leakage of [^99mTc]Tc-carvedilol. Sample processing occurred in a shielded, on-site laboratory adjacent to the dissection area, ensuring minimal delay—typically less than 2 to 3 minutes—between collection and measurement.
To ensure methodological rigor and reproducibility, both experimental and computational components of the study were supported by a structured statistical framework. A total of 24 healthy albino mice (12 males, 12 females), aged 10–12 weeks and weighing 25 ± 3 g, were selected based on uniform health status, age, and weight to minimize inter-animal variability. Animals were maintained under controlled laboratory conditions (12-h light/dark cycle, standardized humidity, and temperature) with unrestricted access to food and water. For biodistribution analysis, animals were randomly assigned to four experimental groups, each consisting of six mice, each representing a distinct post-injection time point (15, 30, 60, and 120 min). […]

SMILES: COc1ccccc1OCC[N]1CC(COc2cccc3[nH]c4ccccc4c23)[O][99Tc]12(=[O])[O]C(COc1cccc3[nH]c4ccccc4c13)C[N]2CCOc1ccccc1OC (racemic) [[^99mTc]Tc-carvedilol]
- Residual [^99mTc]Tc-carvedilol percentages of injected dose per Gram in non-targeted organs (Blood row, 30 min post-injection): 96.021 ± 0.01 % ID/g
- Residual [^99mTc]Tc-carvedilol percentages of injected dose per Gram in non-targeted organs (Blood row, 60 min post-injection): 92.710 ± 0.01 % ID/g
- Residual [^99mTc]Tc-carvedilol percentages of injected dose per Gram in non-targeted organs (Blood row, 120 min post-injection): 94.008 ± 0.02 % ID/g
- [^99mTc]Tc-carvedilol percentages of injected dose per Gram organ (Blood, 15 min post-injection): 19.895 ± 0.020 ^a % ID/g organ
- [^99mTc]Tc-carvedilol percentages of injected dose per Gram organ (Blood, 30 min post-injection): 3.969 ± 0.052 % ID/g organ
- [^99mTc]Tc-carvedilol percentages of injected dose per Gram organ (Blood, 60 min post-injection): 7.290 ± 0.052 % ID/g organ
- [^99mTc]Tc-carvedilol percentages of injected dose per Gram organ (Blood, 120 min post-injection): 5.972 ± 0.131 % ID/g organ
- [^99mTc]Tc-carvedilol percentages of injected dose per Gram organ (Bone, 15 min post-injection): 0.322 ± 0.035 % ID/g organ
- [^99mTc]Tc-carvedilol percentages of injected dose per Gram organ (Bone, 30 min post-injection): 0.963 ± 0.215 % ID/g organ
- [^99mTc]Tc-carvedilol percentages of injected dose per Gram organ (Bone, 60 min post-injection): 0.675 ± 0.215 % ID/g organ
- [^99mTc]Tc-carvedilol percentages of injected dose per Gram organ (Bone, 120 min post-injection): 2.703 ± 0.019 % ID/g organ
- Residual [^99mTc]Tc-carvedilol percentages of injected dose per Gram in non-targeted organs (Brain row, 15 min post-injection): 99.359 ± 0.01 % ID/g
- Residual [^99mTc]Tc-carvedilol percentages of injected dose per Gram in non-targeted organs (Brain row, 30 min post-injection): 98.409 ± 0.03 % ID/g
- Residual [^99mTc]Tc-carvedilol percentages of injected dose per Gram in non-targeted organs (Brain row, 60 min post-injection): 97.103 ± 0.01 % ID/g
- Residual [^99mTc]Tc-carvedilol percentages of injected dose per Gram in non-targeted organs (Brain row, 120 min post-injection): 99.679 ± 0.02 % ID/g
- [^99mTc]Tc-carvedilol percentages of injected dose per Gram organ (Brain, 15 min post-injection): 0.631 ± 0.020 % ID/g organ
- [^99mTc]Tc-carvedilol percentages of injected dose per Gram organ (Brain, 30 min post-injection): 1.561 ± 0.008 % ID/g organ
- [^99mTc]Tc-carvedilol percentages of injected dose per Gram organ (Brain, 60 min post-injection): 2.895 ± 0.391 % ID/g organ
- [^99mTc]Tc-carvedilol percentages of injected dose per Gram organ (Brain, 120 min post-injection): 0.301 ± 0.110 % ID/g organ
- Residual [^99mTc]Tc-carvedilol percentages of injected dose per Gram in non-targeted organs (Heart row, 15 min post-injection): 72.467 ± 0.02 ^a % ID/g
- Residual [^99mTc]Tc-carvedilol percentages of injected dose per Gram in non-targeted organs (Heart row, 30 min post-injection): 92.707 ± 0.02 % ID/g
- Residual [^99mTc]Tc-carvedilol percentages of injected dose per Gram in non-targeted organs (Heart row, 60 min post-injection): 97.838 ± 0.03 % ID/g
- Residual [^99mTc]Tc-carvedilol percentages of injected dose per Gram in non-targeted organs (Heart row, 120 min post-injection): 96.414 ± 0.07 % ID/g
- [^99mTc]Tc-carvedilol percentages of injected dose per Gram organ (Heart, 15 min post-injection): 27.533 % ID/g organ and 27.533 ± 0.931 % ID/g organ and 27.533 ± 0.931 ^a % ID/g organ
- [^99mTc]Tc-carvedilol percentages of injected dose per Gram organ (Heart, 30 min post-injection): 7.273 ± 0.006 % ID/g organ
- [^99mTc]Tc-carvedilol percentages of injected dose per Gram organ (Heart, 60 min post-injection): 2.161 ± 0.006 % ID/g organ
- [^99mTc]Tc-carvedilol percentages of injected dose per Gram organ (Heart, 120 min post-injection): 3.516 ± 0.110 % ID/g organ
- Residual [^99mTc]Tc-carvedilol percentages of injected dose per Gram in non-targeted organs (Intestines row, 15 min post-injection): 95.435 ± 0.09 % ID/g
- Residual [^99mTc]Tc-carvedilol percentages of injected dose per Gram in non-targeted organs (Intestines row, 30 min post-injection): 96.612 ± 0.03 % ID/g
- Residual [^99mTc]Tc-carvedilol percentages of injected dose per Gram in non-targeted organs (Intestines row, 60 min post-injection): 92.604 ± 0.04 % ID/g
- Residual [^99mTc]Tc-carvedilol percentages of injected dose per Gram in non-targeted organs (Intestines row, 120 min post-injection): 94.643 ± 0.01 % ID/g
- [^99mTc]Tc-carvedilol percentages of injected dose per Gram organ (Intestines, 15 min post-injection): 4.507 ± 0.521 % ID/g organ
- [^99mTc]Tc-carvedilol percentages of injected dose per Gram organ (Intestines, 30 min post-injection): 3.358 ± 0.792 % ID/g organ
- [^99mTc]Tc-carvedilol percentages of injected dose per Gram organ (Intestines, 60 min post-injection): 7.355 ± 0.792 % ID/g organ
- [^99mTc]Tc-carvedilol percentages of injected dose per Gram organ (Intestines, 120 min post-injection): 5.347 ± 0.521 % ID/g organ
- Residual [^99mTc]Tc-carvedilol percentages of injected dose per Gram in non-targeted organs (Kidneys row, 30 min post-injection): 67.207 ± 0.04 ^a % ID/g
- Residual [^99mTc]Tc-carvedilol percentages of injected dose per Gram in non-targeted organs (Kidneys row, 60 min post-injection): 75.608 ± 0.01 % ID/g
- Residual [^99mTc]Tc-carvedilol percentages of injected dose per Gram in non-targeted organs (Kidneys row, 120 min post-injection): 70.660 ± 0.05 % ID/g
- [^99mTc]Tc-carvedilol percentages of injected dose per Gram organ (Kidneys, 15 min post-injection): 2.764 ± 0.012 % ID/g organ
- [^99mTc]Tc-carvedilol percentages of injected dose per Gram organ (Kidneys, 30 min post-injection): 32.753 ± 0.345 % ID/g organ and 32.753 ± 0.345 ^a % ID/g organ
